In this experiment the test system is scopolamininduzierten Amnesie. The experiment in a line: Passive avoidance test, scopolamine-induced amnesia (light-dark box, foot shock, latency after 24 h). The class given is in vivo, Mäuse. Particulars: male mice, scopolamine hydrobromide 3 mg/kg i.p. The method, then:
Die Testapparatur ist eine Hell-Dunkel-Box mit elektrifizierbarem Gitterboden im dunklen Teil.
55 Minuten nach Verabreichung von Kontroll-und Präparatinjektion werden unerfahrene männliche Mäuse mit Scopolaminhydrobromid (3 mg/kg i.p.) behendelt. 5 Minuten später werden die Mäuse in den hellen Teil der Box gesetzt. Nach dem Überwechseln in den drunklen Teil der Box erhalten sie einen ihnen unangenehmen elektrischen Fußschock. Nach 24 Stunden wird jede Maus einmal in den hellen Teil der Testapparatur gesetzt und die Verweildauer (max. 180 sec.) gemessen. […] […] Die Ergebnisse sind in Tabelle 2 angegeben.

Two compounds from EP0287988A2, “Pyrrole aldehydes, their preparation and use” (CASSELLA Aktiengesellschaft, priority 1987, dated 1988) can be followed below.

`NC(=O)CN1CCCC1=O` [Piracetam]: for the setting “Dosis 60 mg/kg p.o.”, the “prozentuale Abschwächung” value was found to be 100%.

Consider “1-(Aminocarbony(methyl)-2,5-dimethylpyrrol-3-aldehyd [Beispiel 13]”, for which the “Prozentuale Abschwächung der scopolamininduzierten Amnesie” value (Dosis 30 mg/kg p.o., latency measured after 24 h (max. 180 sec)) worked out at 146%.
